{"source": "paper PMC10423278", "about": "“Delivered complementation in planta (DCIP) enables measurement of peptide-mediated protein delivery efficiency in plants” (Communications Biology, 2023)", "key": {"[1]": {"system": "DCIP expressing N. benthamiana leaves", "experiment": "Delivered complementation in planta (DCIP), infiltrated leaf discs, confocal imaging of nuclear sfGFP/mCherry", "assay_type": "cell-based, Nicotiana benthamiana", "settings": "for DCIP delivery signal, statistical significance vs water infiltration control: N = 6, Kruskal–Wallis/Dunn", "procedure": "The DCIP protocol involves transient expression of DCIP in N. benthamiana. 3 d.p.i., leaves are infiltrated with an aqueous solution of cargo that contains the GFP11 tag. Immediately after infiltration, the infiltrated leaves are either left intact or a leaf disc is excised from the infiltrated area and plated on pH 5.7 ½ MS. After a predetermined incubation time, the leaves are imaged on a confocal laser scanning microscope. For quantitative imaging, the resulting images are then automatically analyzed using Cell Profiler[30] for nuclear sfGFP and mCherry fluorescence (Fig. 1a). A detailed methodology is provided in the “Methods” section.\nThree days after agroinfiltration, DCIP-expressing leaves were infiltrated with the treatment solutions. Unless otherwise stated, an 8 mm punch was then excised from the infiltrated area and plated, abaxial side up, onto ½ MS pH 5.7 agar plates. The plates were then left to incubate under ambient conditions for 4–5 h before imaging. For cold temperature treatment, after infiltration with ice-cold solutions of R9-GFP11 and disc excision, the leaf discs were plated onto ice-cold agar and immediately transferred to a 4 °C refrigerator for incubation. After incubation, the agar plates with leaf discs were kept on ice until the moment of imaging. For in situ incubation, leaves were simply infiltrated and the plant was returned to the growing chamber for incubation. All peptides were dissolved in sterile water and all recombinant proteins were dissolved in 10 mM Tris pH 7.4, 10 mM NaCl for infiltration.\nExcised leaf discs were imaged on a Zeiss LSM880 laser scanning confocal microscope. Images for semi-quantitative analysis were collected using a ×20/1.0NA Plan-apochromat water immersion objective and larger field-of-views were collected using a ×5 objective. Leaf discs were mounted by sandwiching a droplet of water between the leaf disc and a #1.5 cover glass. BFP, sfGFP, mCherry, and chloroplast autofluorescence images were acquired by excitation with a 405, 488, 561, and 635 nm laser, respectively. The emission bands collected for BFP, sfGFP, mCherry, and autofluorescence were 410–529, 493–550, 578–645, and 652–728 nm, respectively. All images were collected such that the aperture was set to 1 Airy-unit in the mCherry channel. Images and profile plots were prepared for publication using Zen Blue software. Profile plots were smoothed by taking a moving window of three measurements and normalized to the maximum smoothed intensity for each color. For quantification experiments, z-stacks were acquired with the imaging depth set to capture the epidermal layer down to the point where mCherry nuclei could no longer be detected. z-stacks from four fields of view were acquired for every treatment condition. Quantitative image analysis and downstream processing was performed using Cell Profiler 3.0. […] Cell Profiler was then used to quantify the number, mCherry intensity, GFP intensity, and red (mCherry)/green (sfGFP) ratio of the projected nuclei.\nData obtained from Cell Profiler was processed using a script written in Python 3.9. Using the Cell Profiler data, GFP positive nuclei were counted using a Python script by setting a threshold defined as a one-tailed 99% confidence interval above the mean green/red ratio in the untreated control or water infiltration control of each experiment. […]"}, "f-actin": {"system": "f-actin", "experiment": "cytoDCIP delivery-mediated actin labeling (Lifeact/f-actin scaffolding)", "assay_type": "cell-based, Nicotiana benthamiana", "source_text": "After confirming that recombinant proteins could be efficiently delivered into plant cells with R9 CPP, we asked if delivered proteins could subsequently mediate protein–protein interactions. Being able to mediate protein–protein interactions using delivered proteins could enable new technologies that alter plant physiology. Therefore, in a proof-of-concept experiment, we delivered the 1.9 kDa f-actin binding peptide, Lifeact[50], tagged with GFP11 and R9 (Fig. 6a) into cytoDCIP expressing N. benthamiana leaves. In this scheme, when Lifeact is internalized, GFP11 acts as a scaffold to tether cytoDCIP to actin filaments through the Lifeact/f-Actin interaction. […]\nExcised leaf discs were imaged on a Zeiss LSM880 laser scanning confocal microscope. Images for semi-quantitative analysis were collected using a ×20/1.0NA Plan-apochromat water immersion objective and larger field-of-views were collected using a ×5 objective. […] For quantification experiments, z-stacks were acquired with the imaging depth set to capture the epidermal layer down to the point where mCherry nuclei could no longer be detected. z-stacks from four fields of view were acquired for every treatment condition. Quantitative image analysis and downstream processing was performed using Cell Profiler 3.0. […]"}}, "note": "No end group written: not given here."}
{"compound": "RDHMVLHEYVNAAGIT [GFP11]", "values": [{"measurement": "DCIP delivery signal, statistical significance vs water infiltration control", "setting": "[1]; 100 μM, 4–5 h", "value": "no statistically significant signal"}]}
{"compound": "MGSSHHHHHHENLYFQSNARDHMVLHEYVNAAGITGGGGSGGGGSYFQSNAMGVADLIKKFESISKEEGIGSGSNGNSGSVSRRRRRRRRR* [GFP11-Lifeact-R9]", "values": [{"measurement": "localization of sfGFP/mCherry signal in cytoDCIP leaves (actin filament labeling)", "setting": "f-actin; 120 µM, leaf discs, 6 h, pavement cells", "value": "robust labeling of actin filaments"}]}
{"compound": "CC[C@H](C)[C@H](NC(=O)CNC(=O)[C@H](C)NC(=O)[C@H](C)NC(=O)[C@H](CC(N)=O)NC(=O)[C@@H](NC(=O)[C@H](Cc1ccc(O)cc1)NC(=O)[C@H](CCC(=O)O)NC(=O)[C@H](Cc1c[nH]cn1)NC(=O)[C@H](CC(C)C)NC(=O)[C@@H](NC(=O)[C@H](CCSC)NC(=O)[C@H](Cc1c[nH]cn1)NC(=O)[C@H](CC(=O)O)NC(=O)[C@H](CCCNC(=N)N)NC(=O)[C@H](CO)NC(=O)CNC(=O)[C@H](CO)NC(=O)CNC(=O)[C@H](CC(C)C)NC(=O)[C@H](Cc1ccc(O)cc1)NC(=O)[C@H](CCCCN)NC(=O)[C@H](CC(C)C)NC(=O)[C@@H](NC(=O)[C@H](CCCCN)NC(=O)[C@H](CCCCN)NC(=O)[C@H](Cc1ccccc1)NC(=O)[C@H](CC(C)C)NC(=O)[C@H](CCCCN)NC(=O)[C@@H](N)CCCCN)[C@@H](C)CC)C(C)C)C(C)C)C(=O)N[C@H](C(=O)O)[C@@H](C)O", "note": "[BP100-GFP11]", "values": [{"measurement": "sfGFP complementation observed by confocal imaging (qualitative)", "setting": "[1]; 100 μM peptide, 4–5 h post-infiltration", "value": "rare instances of successful delivery"}, {"measurement": "DCIP delivery signal, statistical significance vs water infiltration control", "setting": "[1]; 100 μM, 4–5 h", "value": "no statistically significant signal"}]}
{"compound": "C/C1=C/C(=O)O[C@@H]2C[C@@H](CC[C@H](C)/C=C\\CC1)O[C@@](O)([C@@H]1CSC(=O)N1)C2", "note": "[LatB, latrunculin B, reference compound]", "values": [{"measurement": "actin filaments on cotreatment with LatB", "setting": "f-actin; 25 µM LatB cotreated with GFP11-Lifeact-R9, 6 h", "value": "no actin filaments were observed"}]}
{"compound": "RKKRRQRRRGSGSRDHMVLHEYVNAAGIT [TAT-GFP11]", "values": [{"measurement": "delivery efficiencies (percent GFP-positive nuclei)", "setting": "[1]; 100 μM CPP-GFP11 conjugate, 4–5 h, N = 6", "value": "30–80%"}, {"measurement": "delivery efficiency normalized to R9 CPP", "setting": "[1]; 100 μM, 4–5 h, N = 6", "value": 0.87, "unit": "times"}]}
